Laboratory results published in US20230257372A1 (CHONG KUN DANG PHARMACEUTICAL CORP., priority 2020, published 2023).
Read-outs that look alike come from different tables or passages of the source.

Key:
human recombinant HDAC1 = target: T1, human recombinant HDAC1 (Homo sapiens, UniProt Q13547); assay: HDAC1 enzyme activity inhibition (HDAC Fluorimetric Drug Discovery Kit); format: biochemical; details: read-out: HDAC1
T1 construct: purchased Enzo Life Science, Inc. BML-SE456
Method in brief: (§1)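 Fluorimetric deacetylase read-out: after 30 min with Developer II following a 60 min, 30° C reaction of recombinant enzyme ([…]) with 10 μM substrate, across five-fold serial compound dilutions.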

human recombinant HDAC6 = target: T2, human recombinant HDAC6 (Homo sapiens, UniProt Q9UBN7); assay: HDAC6 enzyme activity inhibition (HDAC Fluorimetric Drug Discovery Kit); format: biochemical
T2 construct: purchased Calbiochem Inc. 382180
T2 sequence (Q9UBN7 1-1215): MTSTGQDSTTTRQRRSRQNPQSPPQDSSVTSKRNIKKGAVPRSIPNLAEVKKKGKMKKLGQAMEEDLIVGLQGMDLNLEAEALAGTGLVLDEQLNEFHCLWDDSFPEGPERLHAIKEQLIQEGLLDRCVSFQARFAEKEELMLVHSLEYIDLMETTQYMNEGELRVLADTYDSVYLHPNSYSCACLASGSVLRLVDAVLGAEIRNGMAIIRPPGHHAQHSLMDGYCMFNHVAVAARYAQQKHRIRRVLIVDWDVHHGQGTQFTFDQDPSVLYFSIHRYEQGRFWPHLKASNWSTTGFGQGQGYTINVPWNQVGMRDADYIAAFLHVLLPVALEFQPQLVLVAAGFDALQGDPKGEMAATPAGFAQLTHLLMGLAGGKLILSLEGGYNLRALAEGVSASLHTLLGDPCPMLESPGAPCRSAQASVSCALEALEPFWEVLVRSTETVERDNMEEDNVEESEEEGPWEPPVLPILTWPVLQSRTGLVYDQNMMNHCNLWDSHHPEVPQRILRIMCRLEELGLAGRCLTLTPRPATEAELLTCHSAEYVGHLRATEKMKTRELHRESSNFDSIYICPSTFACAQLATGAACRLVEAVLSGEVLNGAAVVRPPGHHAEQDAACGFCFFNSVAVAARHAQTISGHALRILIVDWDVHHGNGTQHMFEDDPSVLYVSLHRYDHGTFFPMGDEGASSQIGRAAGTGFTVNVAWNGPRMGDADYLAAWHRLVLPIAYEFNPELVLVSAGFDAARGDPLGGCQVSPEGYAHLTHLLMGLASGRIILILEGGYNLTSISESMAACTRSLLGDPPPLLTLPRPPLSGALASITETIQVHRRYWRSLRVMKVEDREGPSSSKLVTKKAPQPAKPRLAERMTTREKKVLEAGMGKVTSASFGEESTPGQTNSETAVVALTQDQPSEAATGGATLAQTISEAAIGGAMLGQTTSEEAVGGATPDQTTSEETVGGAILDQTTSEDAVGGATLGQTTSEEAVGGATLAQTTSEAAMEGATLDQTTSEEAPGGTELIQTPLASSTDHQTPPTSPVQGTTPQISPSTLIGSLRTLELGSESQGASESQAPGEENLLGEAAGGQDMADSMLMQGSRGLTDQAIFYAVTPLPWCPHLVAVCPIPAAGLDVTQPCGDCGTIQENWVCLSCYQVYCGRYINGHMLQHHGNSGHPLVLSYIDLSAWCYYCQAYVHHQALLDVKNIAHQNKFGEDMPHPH
Method in brief: as §1

[1] = human recombinant HDAC1, IC50 calculated with GraphPad Prism
[2] = human recombinant HDAC6, IC50 calculated with GraphPad Prism
[3] = human recombinant HDAC1, Fluor de Lys substrate, 30° C. 60 minutes
[4] = human recombinant HDAC6, same protocol as HDAC1

T1 sequence (Q13547 whole entry): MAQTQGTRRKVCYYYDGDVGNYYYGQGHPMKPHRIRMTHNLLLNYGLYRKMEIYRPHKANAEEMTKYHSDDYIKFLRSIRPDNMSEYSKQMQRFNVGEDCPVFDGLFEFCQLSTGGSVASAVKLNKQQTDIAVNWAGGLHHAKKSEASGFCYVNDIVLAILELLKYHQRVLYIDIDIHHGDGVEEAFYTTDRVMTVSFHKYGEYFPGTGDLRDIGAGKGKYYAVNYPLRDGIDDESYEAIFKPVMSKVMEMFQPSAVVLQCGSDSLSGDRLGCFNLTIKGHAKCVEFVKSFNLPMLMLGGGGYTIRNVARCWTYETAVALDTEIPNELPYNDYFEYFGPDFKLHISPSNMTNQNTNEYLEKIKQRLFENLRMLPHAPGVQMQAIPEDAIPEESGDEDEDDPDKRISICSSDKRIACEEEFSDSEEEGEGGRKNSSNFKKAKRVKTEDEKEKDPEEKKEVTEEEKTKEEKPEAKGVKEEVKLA

SMILES	IC50 (human recombinant HDAC1; [1]) [nM]	HDAC6 selectivity (fold) (human recombinant HDAC6; HDAC1 IC50 / HDAC6 IC50)	IC50 (human recombinant HDAC6; [2]) [nM]	IC50 (human recombinant HDAC1; [3]) [nM]	HDAC6 selectivity (fold) (human recombinant HDAC6; HDAC6 over HDAC1)	IC50 (human recombinant HDAC6; [4]) [nM]
CN(C)C1CCN(Cc2ccc(-c3cn(Cc4ccc(-c5nnc(C(F)F)o5)cc4F)nn3)cc2)CC1 [Compound 4494, 1-(4-(1-(4-(5-(difluoromethyl)-1,3,4-oxadiazol-2-yl)-2-fluorobenzyl)-1H-1,2,3-triazol-4-yl)benzyl)-N,N-dimethylpiperidin-4-amine]	> 50000	1466	34.1	–	–	–
Fc1cc(-c2nnc(C(F)F)o2)ccc1Cn1cc(-c2cncc(-c3cn[nH]c3)c2)nn1 [Compound 17058, 2-(4-((4-(5-(1H-pyrazol-4-yl)pyridin-3-yl)-1H-1,2,3-triazol-1-yl)methyl)-3-fluorophenyl)-5-(difluoromethyl)-1,3,4-oxadiazole]	–	–	–	> 50000	2777	18
Fc1ccc(N2CCN(C3COC3)CC2)cc1-c1cn(Cc2ccc(-c3nnc(C(F)F)o3)cc2)nn1 [Compound 4455, 2-(difluoromethyl)-5-(4-((4-(2-fluoro-5-(4-(oxetan-3-yl)piperazin-1-yl)phenyl)-1H-1,2,3-triazol-1-yl)methyl)phenyl)-1,3,4-oxadiazole]	> 50000	520	96.1	–	–	–
CN1CCN(Cc2ccc(-c3cn(Cc4ccc(-c5nnc(C(F)F)o5)cc4)nn3)cc2)CC1 [Compound 4552, 2-(difluoromethyl)-5-(4-((4-(4-((4-methylpiperazin-1-yl)methyl)phenyl)-1H-1,2,3-triazol-1-yl)methyl)phenyl)-1,3,4-oxadiazole]	–	–	–	> 50000	1184	42.2
OCc1ccc(-c2cn(Cc3ccc(-c4nnc(C(F)F)o4)cc3F)nn2)s1 [Compound 17922]	–	–	–	> 50000	512	97.6
CC(C)C(=O)N1CC(c2cn(Cc3ccc(-c4nnc(C(F)F)o4)cn3)nn2)C1 [Compound 3958, 1-(3-(1-((5-(5-(difluoromethyl)-1,3,4-oxadiazol-2-yl)pyridin-2-yl)methyl)-1H-1,2,3-triazol-4-yl)azetidin-1-yl)-2-methylpropan-1-one]	> 50000	116	429	–	–	–
Fc1cc(-c2nnc(C(F)F)o2)ccc1Cn1cc(-c2ccc(CN3CC[C@H](F)C3)cc2)nn1 [Compound 4606, (S)-2-(difluoromethyl)-5-(3-fluoro-4-((4-(4-((3-fluoropyrrolidin-1-yl)methyl)phenyl)-1H-1,2,3-triazol-1-yl)methyl)phenyl)-1,3,4-oxadiazole]	–	–	–	> 50000	2415	20.7
FC(F)c1nnc(-c2ccc(Cn3cc(C4CCCCC4)nn3)nc2)o1 [Compound 3880, 2-(6-((4-cyclohexyl-1H-1,2,3-triazol-1-yl)methyl)pyridin-3-yl)-5-(difluoromethyl)-1,3,4-oxadiazole]	> 50000	627	79.7	–	–	–
CN1CCN(C(=O)c2cccc(-c3cn(Cc4ccc(-c5nnc(C(F)F)o5)cn4)nn3)c2)CC1 [Compound 3887, (3-(1-((5-(5-(difluoromethyl)-1,3,4-oxadiazol-2-yl)pyridin-2-yl)methyl)-1H-1,2,3-triazol-4-yl)phenyl)(4-methylpiperazin-1-yl)methanone]	> 50000	875	57.1	–	–	–
CN1CCN(c2cc(-c3cn(Cc4ccc(-c5nnc(C(F)F)o5)cc4)nn3)ccc2F)CC1 [Compound 4419, 2-(difluoromethyl)-5-(4-((4-(4-fluoro-3-(4-methylpiperazin-1-yl)phenyl)-1H-1,2,3-triazol-1-yl)methyl)phenyl)-1,3,4-oxadiazole]	> 50000	315	159	–	–	–
Fc1ccc(-c2cn(Cc3ccc(-c4nnc(C(F)F)o4)cn3)nn2)cc1F [Compound 3737, 2-(difluoromethyl)-5-(6-((4-(3,4-difluorophenyl)-1H-1,2,3-triazol-1-yl)methyl)pyridin-3-yl)-1,3,4-oxadiazole]	> 50000	1043	47.9	–	–	–
CCN1CCc2ccc(-c3cn(Cc4ccc(-c5nnc(C(F)F)o5)cn4)nn3)cc2C1 [Compound 4211, 2-(difluoromethyl)-5-(6-((4-(2-ethyl-1,2,3,4-tetrahydroisoquinolin-7-yl)-1H-1,2,3-triazol-1-yl)methyl)pyridin-3-yl)-1,3,4-oxadiazole]	> 50000	1039	48.1	–	–	–
Fc1cc(-c2nnc(C(F)F)o2)ccc1Cn1cc(-c2cccc(CN3CC(F)C3)c2)nn1 [Compound 4403, 2-(difluoromethyl)-5-(3-fluoro-4-((4-(3-((3-fluoroazetidin-1-yl)methyl)phenyl)-1H-1,2,3-triazol-1-yl)methyl)phenyl)-1,3,4-oxadiazole]	> 50000	1213	41.2	–	–	–
CN1CCN(c2cc(-c3cn(Cc4ccc(-c5nnc(C(F)F)o5)cn4)nn3)ccn2)CC1 [Compound 4582, 2-(difluoromethyl)-5-(6-((4-(2-(4-methylpiperazin-1-yl)pyridin-4-yl)-1H-1,2,3-triazol-1-yl)methyl)pyridin-3-yl)-1,3,4-oxadiazole]	–	–	–	> 50000	2283	21.9
Fc1cc(-c2nnc(C(F)F)o2)cnc1Cn1cc(-c2cccc(CN3CCCC3)c2Cl)nn1 [Compound 19089]	–	–	–	> 50000	665	75.1
Fc1cc(-c2nnc(C(F)F)o2)ccc1Cn1cc(-c2cnc3[nH]ccc3c2)nn1 [Compound 4524, 2-(4-((4-(1H-pyrrolo[2,3-b]pyridin-5-yl)-1H-1,2,3-triazol-1-yl)methyl)-3-fluorophenyl)-5-(difluoromethyl)-1,3,4-oxadiazole]	–	–	–	> 50000	6024	8.3
CCCN1CCN(c2cccc(-c3cn(Cc4ccc(-c5nnc(C(F)F)o5)cc4)nn3)c2)CC1 [Compound 4369, 2-(difluoromethyl)-5-(4-((4-(3-(4-propylpiperazin-1-yl)phenyl)-1H-1,2,3-triazol-1-yl)methyl)phenyl)-1,3,4-oxadiazole]	> 50000	912	54.8	–	–	–
OCCCc1cn(Cc2ccc(-c3nnc(C(F)F)o3)cn2)nn1 [Compound 3833, 3-(1-((5-(5-(difluoromethyl)-1,3,4-oxadiazol-2-yl)pyridin-2-yl)methyl)-1H-1,2,3-triazol-4-yl)propan-1-ol]	> 50000	117	424	–	–	–
CCN1CC(c2cn(Cc3ccc(-c4nnc(C(F)F)o4)cn3)nn2)C1 [Compound 3951, 2-(difluoromethyl)-5-(6-((4-(1-ethylazetidin-3-yl)-1H-1,2,3-triazol-1-yl)methyl)pyridin-3-yl)-1,3,4-oxadiazole]	> 50000	81	613	–	–	–
O=C(O)c1cccc(-c2cn(Cc3ccc(-c4nnc(C(F)F)o4)cc3)nn2)c1 [Compound 3659, 3-(1-(4-(5-(difluoromethyl)-1,3,4-oxadiazol-2-yl)benzyl)-1H-1,2,3-triazol-4-yl)benzoic acid]	> 50000	122	409	–	–	–
FC(F)c1nnc(-c2ccc(Cn3cc(-c4cccc(NC5CCCCC5)c4)nn3)cc2)o1 [Compound 4324, N-cyclohexyl-3-(1-(4-(5-(difluoromethyl)-1,3,4-oxadiazol-2-yl)benzyl)-1H-1,2,3-triazol-4-yl)aniline]	> 50000	170	294	–	–	–
